Assay results reported in patent US8933245B2, “Preservation of ergothioneine” (ELC Management LLC, priority 2009, dated 2015).
Where “and” joins values, the source holds several entries; their conditions need not be identical. Equal entries are not always repeated.

Experiments:
[1] = Preventing trimethylamine odor by addition of compounds before heating ergothioneine with sodium hydroxide; assay type: physicochemical; settings: for % EGT (w/v): boiled 10 minutes, HPLC
Experimental: Samples were prepared in glass tubes with screw caps with about 0.05% (w/v) ergothioneine in water, a test sample, at the indicated concentration, and 0.1N NaOH (except for the first tube, in which NaOH was omitted as a negative control). The pH of each sample was determined by litmus paper, and then the tubes capped and placed in a boiling water bath for 10 minutes. The tubes were then cooled to room temperature, and then each one was uncapped and smelled by three testers, each of whom scored the odor. The scores were converted to a scale of 0 (no odor) to 3 (strong fishy trimethylamine odor) and then averaged.

[2] = cited from earlier work; for Ka: acid listed with one ionized form
[3] = Formation of fishy amine odor by boiling ergothioneine with sodium hydroxide or other components; assay type: physicochemical
Experimental: This became the assay system used to test agents and procedures for reduction or prevention of the odor.
Four samples of a 5 ml ergothioneine solution at 0.1% (w/v) were prepared in glass test tubes with screw caps. To the first was added 5 ml of water, to the second 5 ml of 0.2% (w/v) sodium metabisulfite, to the third 4 ml of water and 1 ml of 1N sodium hydroxide, and to the fourth 5 ml of 0.2% (w/v) citric acid. […] The samples were boiled for 10 minutes and each one was smelled.
This allowed the testing of methods to inhibit the formation of the odor and to suppress the odor after formation.

[4] = Formation of yellow addition product of ergothioneine and sodium metabisulfite; assay type: physicochemical
Experimental: The vials were sealed and mixing the samples was avoided. The samples were incubated and color development observed. The solutions were examined at 1 hour, and the optical density at 405 nm was measured at 2 hours (Table 9).
The cap was removed and the solution was then shaken for 3 to 4 minutes and ambient air was bubbled through it to drive out the dissolved sulfur dioxide gas. […] Therefore the loss of ergothioneine after addition of sodium metabisulfite is due to formation of an addition product which is reversible, and the ergothioneine is not permanently lost.

[5] = Stability of ergothioneine solution at acidic pH on heating; assay type: physicochemical; settings: 0.05% solution, pH 5, heating 40 C for 60 days
Excerpt: It has been observed that ergothioneine is quite stable at acidic pH. At pH 5 a 0.05% solution remains within 1% of its concentration after heating 40 C for 60 days. However, the reports of its stability in alkali are mixed in the literature. See, for example, Philip Hartman. “Ergothioneine as antioxidant”, Methods Enzymol. 186:310-318, 1990 at p. 311 (“ . . . the sulfur atom of Ergothioneine is remarkably stable to alkali”); H. Heath and G. Toennies. “The preparation and properties of Ergothioneine disulphide”, J. Chem. Soc. pages 204-210, (1958) at p. 204 (“the sulphur is completely unaffected by boiling 50% aqueous potassium hydroxide.”); Oxis International, Inc. Compound Monograph “L-Ergothioneine. Revision III”, at p. […] “Synthesis of L-(+)-Ergothioneine”, J. Org. Chem. 60:6296-6301, 1995 at p. 6296 (“this explains its stability toward oxidative dimerization”).

[6] = Stability of ergothioneine during storage with and without citric acid (HPLC); assay type: physicochemical; settings: percent of starting concentration, 2 mM in water; for % EGT with citric acid: 0.2% citric acid
Experimental: The samples were stored at 4° C., 25° C. or 40° C. for 30 or 60 days and then analyzed by HPLC. Each vial was used once and then discarded. Each measurement was made in triplicate and the results averaged. A standard curve of ergothioneine concentration was constructed at each time point to quantify the amount of ergothioneine in each vial. Each amount in Table 2 is expressed as percentage of the amount measured in the initial sample at the start of the experiment.

[7] = Formation of yellow addition product of ergothioneine and sodium metabisulfite; assay type: physicochemical; settings: 1.25% ergothioneine and 5% sodium metabisulfite; cap removed, shaken, ambient air bubbled; after 6 to 7 minutes
[8] = test sample 0.01%, about 0.05% ergothioneine, 0.1N NaOH, litmus paper
[9] = test sample 0.05%, about 0.05% ergothioneine, 0.1N NaOH, litmus paper
[10] = test sample 0.2%, about 0.05% ergothioneine, 0.1N NaOH, litmus paper
[11] = ergothioneine 1.25%, sodium metabisulfite 5.0%
[12] = ergothioneine 1.25%, sodium metabisulfite 7.5%
[13] = ergothioneine 1.25%, sodium metabisulfite 10%
[14] = ergothioneine 1.25%, sodium metabisulfite 12.5%
[15] = ergothioneine 1.25%, sodium metabisulfite 15%
[16] = ergothioneine 1.25%, sodium metabisulfite 17.5%
[17] = ergothioneine 1.25%, sodium metabisulfite 20%
[18] = ergothioneine 1.25%, sodium metabisulfite 22.5%
[19] = ergothioneine 1.25%, sodium metabisulfite 25%
[20] = ergothioneine 1.25%, sodium metabisulfite […]
[21] = ergothioneine […], sodium metabisulfite 0

SMILES: O=P(O)(O)O [phosphoric acid]
- % EGT (w/v) ([1]; test sample 0.01%, 0.1N NaOH): 0.052 % (w/v)
- % EGT (w/v) ([1]; test sample 0.05%, 0.1N NaOH): 0.054 % (w/v)
- % EGT (w/v) ([1]; test sample 0.2%, 0.1N NaOH): 0.058 % (w/v)

SMILES: CCCCCCC(=O)O [heptanoic acid]
- Ka [2]: 1.29E−5

SMILES: O=S([O-])S(=O)(=O)[O-].[Na+].[Na+] [sodium metabisulfite]
- % EGT (w/v) ([1]; test sample 0.01%, 0.1N NaOH): 0.044 % (w/v)
- pH [1, 8]: 10
- % EGT (w/v) ([1]; test sample 0.05%, 0.1N NaOH): 0.037 % (w/v)
- pH [1, 9]: 9.5
- % EGT (w/v) ([1]; test sample 0.2%, 0.1N NaOH): 0.029 % (w/v)
- pH [1, 10]: 6.5
- pH ([3]; litmus paper, before boiling, 5 ml 0.1% ergothioneine plus 5 ml addition): 5
- time to apparent reduction in the amount of ergothioneine (HPLC) ([4]; after addition of sodium metabisulfite, room temperature without boiling): ≤ 10 min

SMILES: O=S(O)O [sulfurous acid]
- Ka (1) ([2]; first ionized form): 1.41E−2
- Ka (2) ([2]; second ionized form): 6.31E−8

SMILES: O=C(O)CC(O)(CC(=O)O)C(=O)O [citric acid]
- pH [1]: 8 and 10
- % EGT (w/v) ([1]; test sample 0.01%, 0.1N NaOH): 0.052 % (w/v)
- % EGT (w/v) ([1]; test sample 0.05%, 0.1N NaOH): 0.053 % (w/v)
- % EGT (w/v) ([1]; test sample 0.2%, 0.1N NaOH): 0.054 % (w/v)
- pH [3]: 5

SMILES: Cl [Hydrochloric acid]
- % EGT (w/v) ([1]; test sample 0.0001%, 0.1N NaOH): 0.050 % (w/v)
- pH ([1]; test sample 0.0001%, about 0.05% ergothioneine, 0.1N NaOH, litmus paper): 11.5
- % EGT (w/v) ([1]; test sample 0.01%, 0.1N NaOH): 0.050 % (w/v)
- pH [1, 8]: 10

SMILES: C[N+](C)(C)[C@@H](Cc1c[nH]c(=S)[nH]1)C(=O)[O-] [ergothioneine]
- change of concentration [5]: ≤ 1%
- % EGT with citric acid ([6]; 4° C., 30 days): 101.6%
- % EGT with citric acid ([6]; 4° C., 60 days): 105.8%
- % EGT with citric acid ([6]; 25° C., 30 days): 101.5%
- % EGT with citric acid ([6]; 25° C., 60 days): 102.2%
- % EGT with citric acid ([6]; 40° C., 30 days): 101.1%
- % EGT with citric acid ([6]; 40° C., 60 days): 99.6%
- % EGT without citric acid ([6]; 4° C., 30 days): 96.1%
- % EGT without citric acid ([6]; 4° C., 60 days): 106.5%
- % EGT without citric acid ([6]; 25° C., 30 days): 84.0%
- % EGT without citric acid ([6]; 25° C., 60 days): 100.5%
- % EGT without citric acid ([6]; 40° C., 30 days): 86.3%
- % EGT without citric acid ([6]; 40° C., 60 days): 99.8%
- color of solution ([4]; 1.25% ergothioneine and 5% sodium metabisulfite, one week at room temperature in a capped tube): intense lemon yellow
- Color description at 1 h [4, 11]: Near colorless
- OD405 at 2 hr [4, 11]: 0.104
- Color description at 1 h [4, 12]: Yellow tinge
- OD405 at 2 hr [4, 12]: 0.186
- Color description at 1 h [4, 13]: Slight yellow
- OD405 at 2 hr [4, 13]: 0.265
- Color description at 1 h [4, 14]: Light yellow
- OD405 at 2 hr [4, 14]: 0.456
- Color description at 1 h [4, 15]: Yellow
- OD405 at 2 hr [4, 15]: 0.593
- Color description at 1 h [4, 16]: Yellow
- OD405 at 2 hr [4, 16]: 0.966
- Color description at 1 h [4, 17]: Light lemon yellow
- OD405 at 2 hr [4, 17]: 1.993
- Color description at 1 h [4, 18]: Intense lemon yellow
- OD405 at 2 hr [4, 18]: 2.873
- Color description at 1 h [4, 19]: Intense lemon yellow
- OD405 at 2 hr [4, 19]: 3.126
- Color description at 1 h [4, 20]: Colorless
- OD405 at 2 hr [4, 20]: 0.044
- Color description at 1 h [4, 21]: Colorless
- OD405 at 2 hr [4, 21]: 0.004
- color of solution after driving out sulfur dioxide [7]: nearly colorless with a yellow tinge

SMILES: O=C1O[C@H]([C@@H](O)CO)C(O)=C1O [ascorbic acid]
- % EGT (w/v) ([1]; test sample 0.01%, 0.1N NaOH): 0.050 % (w/v)
- pH [1, 8]: 10.5
- % EGT (w/v) ([1]; test sample 0.05%, 0.1N NaOH): 0.050 % (w/v)
- pH [1, 9]: 10.5
- % EGT (w/v) ([1]; test sample 0.2%, 0.1N NaOH): 0.047 % (w/v)
- pH [1, 10]: 5

SMILES: OB(O)O [boric acid]
- pH [1]: 8.5 and 10 and 10.5
- % EGT (w/v) ([1]; test sample 0.01%, 0.1N NaOH): 0.050 % (w/v)
- % EGT (w/v) ([1]; test sample 0.05%, 0.1N NaOH): 0.051 % (w/v)
- % EGT (w/v) ([1]; test sample 0.2%, 0.1N NaOH): 0.052 % (w/v)

SMILES: CCCCC(=O)O [pentanoic acid]
- Ka [2]: 3.31E−5

SMILES: CC(=O)O [acetic acid]
- % EGT (w/v) ([1]; test sample 0.01%, 0.1N NaOH): 0.050 % (w/v)
- pH [1, 8]: 10.5
- % EGT (w/v) ([1]; test sample 0.05%, 0.1N NaOH): 0.052 % (w/v)
- pH [1, 9]: 8
- % EGT (w/v) ([1]; test sample 0.2%, 0.1N NaOH): 0.052 % (w/v)
- pH [1, 10]: 4
- Ka [2]: 1.74E−5

SMILES: [Na+].[OH-] [sodium hydroxide]
- pH [3]: approximately 10

SMILES: O=c1[nH]c(=O)c2[nH]c(=O)[nH]c2[nH]1 [uric acid]
- Ka [2]: 1.29E−4
